Results reported in US5554636A, “N-acylated 4-hydroxphenylamine derivatives with analgesic properties and pharmaceutical compositions containing them” (priority 1995, dated 1996).

Legend:
[1] = system: pain response (hotplate) in CD-1 mice; assay: hotplate analgesic test; assay type: in vivo, CD-1 mice (Charles-River); conditions: for analgesic activity in hotplate test (words): mice, oral
Procedure: (§1) Analgesic activity was measured in CD-1 mice (Charles-River) on the basis of the following three methods:
The second method employed is the hotplate method (Wolfe, G. and MacDonald, A. D., J. Pharmacol. Exp. Ther. 80, 300, 1944). The mouse is placed on a plate at 54° C., and the latency time of withdrawal of a hind foot or a jump is measured. Groups of 10 mice, to which the compounds were administered orally at the doses indicated as abscissae, were subjected to the hotplate test before and at the end of 30 and 60 minutes following administration of the compounds. The mean latency at 30 and 60 minutes minus the baseline latency is plotted as ordinates.

[2] = system: plasma GPT and GOT transaminase levels; conditions: mouse, in vivo
Procedure: (§2) Toxicity studies were based on the measurement of two parameters: mortality and hepatotoxicity.
(§3) For the hepatotoxicity study, mice were kept fasted overnight. The following morning, the compounds were administered orally under ether anesthesia. […] Paracetamol was dissolved in 0.5% tragacanth in saline solution. 24 hours after administration of the compounds, blood was withdrawn from the orbital plexus of the mice anesthetized with ether, and placed in heparinized capillary tubes. The samples were centrifuged at 2000 rpm for 10 minutes, and the plasma glutamic-oxaloacetic transaminase (GOT) and glutamicpyruvic transaminase (GPT) levels were determined spectrophotometrically using Sigma kits. The number of animals used in each group is indicated within each column.

[3] = system: yeast-induced pyretic response in Sprague-Dawley rats; assay: antipyretic activity (yeast-induced temperature increase); assay type: in vivo; conditions: oral; for antipyretic effect: at the doses studied
Procedure: Antipyretic activity was determined in Sprague-Dawley rats weighing 130-220 g. The animals were injected subcutaneously with a 15% suspension of yeast dissolved in saline solution (1 mL/100 g body weight). Body temperature was measured by means of a rectal thermistor connected to a Cole-Palmer remote thermometer. The temperature at which the experiment was started was the temperature determined 2 hours after the administration of yeasts. Temperature measurements were subsequently made in animals to which paracetamol (standard) or the test compound was administered orally (Suspension K, Bioserve). The results, expressed as the percentage increase in temperature from the baseline value to that obtained 6 hours after the subcutaneous administration of yeast, are given in FIG. 4.

[4] = system: mice; assay: mortality after oral administration; conditions: summary statement
Procedure: as §2
Mortality was determined by means of the oral administration of 1 g/kg of paracetamol or the test compound (in Suspension K, Bioserve). For this purpose, the number of mice surviving 18 hours after the administration of each compound was counted.

[5] = solubility remark in hepatotoxicity study; assay type: physicochemical
Procedure: as §3

[6] = system: pain response in CD-1 mice; assay: overall analgesic activity (tail flick, hotplate and acetic acid tests); assay type: in vivo, CD-1 mice (Charles-River); conditions: oral
Procedure: as §1
(§4) The third method consists in measuring the number of writhes performed by a mouse as a manifestation of the pain produced by an intraperitoneal injection of 10 mL/kg of 0.4% acetic acid solution. […] Following oral administration of each compound, the mice (groups of 8 or more) received, 25 minutes later, an intraperitoneal injection of 10 mL/kg of 0.4% acetic acid. The number of writhes was counted 5-15 minutes after the injection of acetic acid.

[7] = system: pain response (tail flick) in CD-1 mice; assay: tail flick analgesic test; assay type: in vivo, CD-1 mice (Charles-River); conditions: for analgesic activity in tail flick test: mice, oral
Procedure: as §1
In the tail flick method (D'Amour, F. E., Smith, D. L., J. Pharmacol. Exp. Ther. 72, 74, 1941), the tail of each mouse is exposed to a concentrated light beam; when the animal feels pain, it removes its tail abruptly from said beam, and the latency time of this flick response is measured. The compound indicated by each symbol was administered orally to groups of 10 mice at the doses indicated as abscissae. The analgesia was quantified before and 15, 30, 60 and 120 minutes after the administration of each compound. The peak activity (30 minutes) was plotted as the percentage of mice in which the latency time for flicking the tail was at least doubled.

[8] = system: writhes produced by intraperitoneal acetic acid in CD-1 mice; assay: acetic acid writhing test; assay type: in vivo, CD-1 mice (Charles-River); conditions: oral; for ED50: Mus musculus, 25 min, 0.4% acetic acid i.p. 25 minutes later
Procedure: as §1, §4

| Compound | analgesic activity in hotplate test (words) [1] | hepatotoxicity [2] | antipyretic effect [3] | antipyretic effect ([3]; listed as Example I) | toxicity compared with paracetamol [4] | solubility [5] | analgesic profile / analgesic activity [6] | analgesic profile / analgesic activity ([6]; listed as Example I) | analgesic activity in tail flick test [7] | ED50 [8] [mg/kg] | analgesic activity in acetic acid test [8] | ED50 ([1]; Mus musculus, po, read-out: ED50, hotplate test) [mg/kg] | ED50 ([7]; Mus musculus, po, read-out: ED50, tail flick test) [mg/kg] | analgesic activity in hotplate test (words) ([1]; listed as paracetamol) | ED50 ([3]; Rattus norvegicus, yeast s.c., read-out: ED50, reduction of pyretic response) [mg/kg] |
| --- | --- | --- | --- | --- | --- | --- | --- | --- | --- | --- | --- | --- | --- | --- | --- |
| O=C(CN1C(=O)c2ccccc2S1(=O)=O)Nc1ccc(O)cc1 [Example 1, 2-[2,3-Dihydro-3-oxo-1,2-benzisothiazol-2-yl 1,1-dioxide]-N-(4-hydroxyphenyl)acetamide] | did not display activity | lacks hepatotoxicity | did not display antipyretic effects | not possessing antipyretic effects | much lower toxicity | poor solubility | analgesic profile identical to that of paracetamol | analgesic activity equivalent to that of paracetamol | did not display activity | 121 | displayed an analgesic effect | – | – | – | – |
| CN1CC[C@]23c4c5ccc(O)c4O[C@H]2[C@@H](O)C=C[C@H]3[C@H]1C5 [Morphine] | active | – | – | – | – | – | – | – | active | – | active | 22.3 | 28.5 | – | – |
| CC(=O)Nc1ccc(O)cc1 [Paracetamol] | minimally active | – | reduced the pyretic response in a dose-dependent manner | – | – | – | – | – | did not display activity | 130 | effective | – | – | did not display activity | 77.7 |
